The values below come from patent US8703210B1, “Adding calcium and bicarbonate to human blood” (Sang Lads, Inc., priority 2005, dated 2014).

Where two headings read alike, the source gives them in different places.

On to `O=C([O-])[O-].[Ca+2]` [Calcium carbonate, calcium carbonate], for which the pH result was “neutral” (after carbonic acid (in the form of club soda) is added to the mixture) and ≤ 9 (calcium carbonate powder dissolved into water).
